From BigSolDB 2.1

Question: With c1ccc(P(c2ccccc2)c2ccccc2)cc1 as the compound, how does the solubility (mole fraction) (in acetone, 303.2 K) read?
Answer: Its solubility (mole fraction) is 0.089.

Question: And the solubility (mole fraction) (in acetone, 308.1 K)?
Answer: Its solubility (mole fraction) is 0.12.

Question: And the solubility (mole fraction) (in acetone, 313.4 K)?
Answer: Its solubility (mole fraction) is 0.14.

Question: What about the solubility (mole fraction) (in acetone, 318.2 K) of the same compound?
Answer: Its solubility (mole fraction) is 0.19.

Question: And the solubility (mole fraction) (in acetone, 323.5 K)?
Answer: The solubility (mole fraction) was 0.25.

Question: What about the solubility (mole fraction) (in acetone, 327.8 K) of the same compound?
Answer: The solubility (mole fraction) was 0.33.

Question: What about the solubility (mole fraction) (in acetone, 333.1 K) of the same compound?
Answer: Its solubility (mole fraction) is 0.42.

Question: And the solubility (mole fraction) (in benzene, 303.3 K)?
Answer: Its solubility (mole fraction) is 0.069.

Question: And the solubility (mole fraction) (in benzene, 308.6 K)?
Answer: Its solubility (mole fraction) is 0.095.

Question: What about the solubility (mole fraction) (in benzene, 312.9 K) of the same compound?
Answer: Its solubility (mole fraction) is 0.12.

Question: And the solubility (mole fraction) (in benzene, 318.1 K)?
Answer: Its solubility (mole fraction) is 0.16.

Question: What about the solubility (mole fraction) (in benzene, 323.2 K) of the same compound?
Answer: Its solubility (mole fraction) is 0.22.

Question: And the solubility (mole fraction) (in benzene, 328.1 K)?
Answer: The solubility (mole fraction) was 0.28.

Question: What about the solubility (mole fraction) (in benzene, 333.2 K) of the same compound?
Answer: The solubility (mole fraction) was 0.37.

Question: What about the solubility (mole fraction) (in ethanol, 303.5 K) of the same compound?
Answer: The solubility (mole fraction) was 0.0095.

Question: And the solubility (mole fraction) (in ethanol, 308.3 K)?
Answer: Its solubility (mole fraction) is 0.012.

Question: What about the solubility (mole fraction) (in ethanol, 313.3 K) of the same compound?
Answer: Its solubility (mole fraction) is 0.016.

Question: What about the solubility (mole fraction) (in ethanol, 318.6 K) of the same compound?
Answer: Its solubility (mole fraction) is 0.022.

Question: And the solubility (mole fraction) (in ethanol, 323.2 K)?
Answer: Its solubility (mole fraction) is 0.028.

Question: What about the solubility (mole fraction) (in ethanol, 327.9 K) of the same compound?
Answer: The solubility (mole fraction) was 0.038.

Question: And the solubility (mole fraction) (in ethanol, 333 K)?
Answer: The solubility (mole fraction) was 0.05.

Question: What about the solubility (mole fraction) (in isopropanol, 303.1 K) of the same compound?
Answer: Its solubility (mole fraction) is 0.0077.

Question: What about the solubility (mole fraction) (in isopropanol, 308.4 K) of the same compound?
Answer: The solubility (mole fraction) was 0.01.

Question: And the solubility (mole fraction) (in isopropanol, 313.3 K)?
Answer: Its solubility (mole fraction) is 0.014.

Question: And the solubility (mole fraction) (in isopropanol, 318.2 K)?
Answer: The solubility (mole fraction) was 0.019.

Question: And the solubility (mole fraction) (in isopropanol, 322.9 K)?
Answer: The solubility (mole fraction) was 0.025.

Question: What about the solubility (mole fraction) (in isopropanol, 328.4 K) of the same compound?
Answer: The solubility (mole fraction) was 0.033.

Question: What about the solubility (mole fraction) (in isopropanol, 333.2 K) of the same compound?
Answer: Its solubility (mole fraction) is 0.045.

Question: And the solubility (mole fraction) (in toluene, 302.4 K)?
Answer: The solubility (mole fraction) was 0.05.

Question: And the solubility (mole fraction) (in toluene, 308.2 K)?
Answer: The solubility (mole fraction) was 0.07.

Question: What about the solubility (mole fraction) (in toluene, 313.7 K) of the same compound?
Answer: The solubility (mole fraction) was 0.1.

Question: And the solubility (mole fraction) (in toluene, 318.2 K)?
Answer: The solubility (mole fraction) was 0.13.

Question: And the solubility (mole fraction) (in toluene, 323.3 K)?
Answer: The solubility (mole fraction) was 0.18.

Question: What about the solubility (mole fraction) (in toluene, 328.3 K) of the same compound?
Answer: The solubility (mole fraction) was 0.24.

Question: What about the solubility (mole fraction) (in toluene, 333.4 K) of the same compound?
Answer: The solubility (mole fraction) was 0.32.
